Test results reported in ChEMBL document CHEMBL3608215, “Natural β-Dihydroagarofuran-Type Sesquiterpenoids as Cognition-Enhancing and Neuroprotective Agents from Medicinal Plants of the Genus Celastrus” (2015).
Active and inactive are the calls of the source. The calls are words filed in the database; no cut-off is given here.

Key:
SH-SY5Y = test: Neuroprotective activity in human SH-SY5Y cells assessed as production against amyloid beta (25 to 35)-induced cell death by measuring cell viability at 1 uM after 24 hrs by MTT assay; format: functional
Mus musculus [1] = test: Cognition-enhancing effect in ICR mouse assessed as reduction of scopolamine-induced escape latency and number of errors at 20 mg/kg, ig treated 1 hr before scopolamine challenge by passageway water maze test; format: functional, organism-based
Mus musculus [2] = test: Cognition-enhancing effect in ICR mouse assessed as reduction of scopolamine-induced escape latency and number of errors at 0.1 mg/kg, ig treated 1 hr before scopolamine challenge by passageway water maze test; format: functional, organism-based
Mus musculus [3] = test: Cognition-enhancing effect in ig dosed ICR mouse assessed as reduction of scopolamine-induced escape latency and number of errors treated 1 hr before scopolamine challenge by passageway water maze test; format: functional, organism-based
Mus musculus [4] = test: Cognition-enhancing effect in ICR mouse assessed as reduction of scopolamine-induced escape latency and number of errors at 10 to 40 mg/kg, ig treated 1 hr before scopolamine challenge by passageway water maze test; format: functional, organism-based

Structure (SMILES)	Activity (Mus musculus [1])	Activity (Mus musculus [2])	further results
CC(=O)O[C@H]1[C@@H](OC(=O)/C=C/c2ccccc2)C[C@@H](C)[C@@]23C[C@@H](C[C@H](OC(=O)/C=C/c4ccccc4)[C@]12C)C(C)(C)O3	–	–	Activity (SH-SY5Y): 76.3%
CC(=O)O[C@@H]1[C@H]2C[C@H](OC(=O)/C=C/c3ccccc3)[C@]3(C)[C@@H](OC(C)=O)[C@@H](OC(=O)c4ccccc4)C[C@@H](C)[C@@]13OC2(C)C	–	–	Activity (SH-SY5Y): 79.6%
CC(=O)O[C@H]1C[C@@H]2[C@@H](OC(C)=O)[C@]3(OC2(C)C)[C@H](C)CC[C@H](OC(=O)c2ccccc2)[C@@]13C	Active	Active	–
CC(=O)O[C@H]1C[C@@H]2[C@@H](OC(=O)c3ccccc3)[C@]3(OC2(C)C)[C@H](C)CC[C@H](OC(=O)c2ccccc2)[C@@]13C	Active	Active	–
C/C=C1\[C@H]2C=C(C)C[C@]1(N)c1ccc(=O)[nH]c1C2	–	Active	–
CC(=O)OC[C@@]12[C@@H](OC(C)=O)CC[C@@H](C)[C@]13OC(C)(C)[C@H](C[C@@H]2OC(=O)c1ccccc1)[C@H]3OC(C)=O	Active	Active	–
CC(=O)O[C@H]1CC[C@@H](C)[C@@]23C[C@@H](C[C@H](OC(=O)/C=C/c4ccccc4)[C@]12C)C(C)(C)O3	–	Active	Activity (Mus musculus [3]): Dose-dependent effect
CC(=O)O[C@@H]1[C@@H]2[C@@H](OC(C)=O)[C@]3(OC2(C)C)[C@H](C)CC[C@H](OC(C)=O)[C@@]3(C)[C@H]1OC(=O)c1ccccc1	–	–	Activity (Mus musculus [4]): inactive
